From patent US20150359794A1, “IMPAIRMENT OF THE LARGE RIBOSOMAL SUBUNIT PROTEIN RPL24 BY DEPLETION OR ACETYLATION” (Buck Institute for Research on Aging, priority 2014, published 2015)

Legend:
Format in all cases: cell-based, human
[1] = test system: ribosomal protein; test: Acetyl-lysine western blot of ribopellets (ribosomal protein acetylation); conditions: SKBR3 cells
Description: (§1) Previous studies have shown that pan-inhibitors of class I and II histone deacetylases, like TSA, can rapidly destabilize a number of oncogenic transcripts including HER2 in a cycloheximide-dependent manner (FIG. 9). […] Thus, SKBR3 cells were treated with TSA to evaluate polysome protein acetylation and determine if, similar to RPL24 depletion, histone deacetylase inhibition can affect ribosome assembly dynamics. To detect early (2 h) ribosome or polysome acetylation following histone deacetylase inhibition treatment (1 μM TSA), SKBR3 polysomes were isolated using a discontinuous sucrose gradient as previously described. […] Mass spectrometry studies indicate that 15 ribosomal proteins, 11 large subunit proteins (RPL24 included) and 4 small subunit proteins, underwent at least a two-fold induction in acetylation following 2 h or 6 h TSA treatment (1 μM) (FIG. 4b, FIG. 10a-q).
Like TSA, the HDAC6 (class IIb)-selective inhibitors, Tubacin and Compound 101, as well as HDAC6 siRNA, all induce tubulin acetylation as expected as well as ribosomal protein acetylation, including the band that co-migrates with RPL24 (FIG. 4c,d, indicated by arrows). […] Thus, the tubulin acetylating effects of pan-histone deacetylase inhibition, known to be mediated by inhibition or knockdown of HDAC6, correspond to the observed ribosome and RPL24 acetylation responses induced by TSA.
(§2) Cells are lysed in RIPA buffer (10 mM Tris-HCL (pH 8.0), 1 mM EDTA, 0.5 mM EGTA, 1% triton X-100, 0.1% sodium deoxycholate, 0.1% SDS, 140 mM NaCl, 20 mM NaF, Complete EDTA-free protease inhibitor tablets (Roche Diagnostics Corp., Basel, Switzerland) and the phosphatase inhibitor cocktail PhosSTOP (Roche)), the latter two as indicated by the manufacturer's protocol. Equal amounts of protein are diluted in 2× sample buffer. Immunoblots on PVDF (Polyvinyldene Fluoride) membranes are blocked with nonfat milk in tris-buffered saline with 0.05% tween-20 (TBST). The following antibodies are incubated with membranes in 5% nonfat milk in TBST: RPL24 (Proteintech, Chicago, Ill.), Cyclin D1, Rack1, RPL4 (Santa Cruz Biotechnology, Santa Cruz, Calif.), NBS1, GAPDH (EMD Millipore Corporation, Chicago, Ill.), Survivin, β-tubulin, acetyl-lysine, eIF6, acetyl-H2B, H2B, (Cell Signaling Technology, Boston, Mass.), acetyl-tubulin, tubulin (Sigma Aldrich (St. Louis, Mo.))
Cells, plated at […] confluency, are treated as indicated. After treatment, cells are treated with 50 μg/ml cycloheximide for 15 minutes. Cells are lysed with a buffer containing 10 mM HEPES, 10 mM KCl, 75 mM NaCl, 10 mM MgCl2, 0.35% NP40, pH 7.9 supplemented with Complete EDTA-free protease inhibitor tablets, PhosSTOP phosphatase inhibitor tablets (Roche) per manufacturer's instructions, 50 μg/ml cycloheximide, SUPERase RNase inhibitors (Life Technologies) per manufacturer's instructions, 15 μM TSA, and 5 mM nicotinimide to inhibit histone deacetylases. Supernatants are collected as cytoplasmic preparations. Where indicated, pellets containing nuclei are resuspended in RIPA buffer (described above). The suspension is spun at 13,000 rpm for 5 min and supernatants are collected as nuclear preparations.
Ribosomes are subsequently isolated from cytoplasmic preparations as described previously. Briefly, lysates are layered on top of a 12% and 33% discontinuous sucrose gradient and spun at 38,000 rpm for 2 h. The resulting polysome pellet is then resuspended, stripped of RNA with acetic acid, and then pelleted with acetone. The pellet is then resuspended in 8 M urea, 2% CHAPS, and 25 mM dithiothreitol (DTT).
FIG. 4: Ribosomal protein acetylation is induced by histone deacetylase inhibition. (a-c) SKBR3 cells were treated with the indicated drugs for the indicated period of time. (d) SKBR3 cells were transfected with the indicated siRNAs and allowed to incubate for 72 hours. (a, c, d). The indicated western blots were performed in ribopellets, total cytoplasmic lysates, or nuclear extracts. […]

[2] = test system: cyclin D1, survivin, and NBS1; test: Western blot of cap (eIF4E)-dependently translated proteins; conditions: SKBR3 cells
Description: Since the translation-dependent checkpoint mechanism remains undefined, the impact of RPL24 depletion in a model human breast cancer cell line, SKBR3, sensitive to eIF4E-regulated and cap-dependent translation inhibition was evaluated. Two different RPL24-directed shRNA-expressing lentiviruses were used to decrease RPL24 protein expression by approximately 70% (FIG. 2a). […] Associated with RPL24 depletion and growth inhibition was a marked reduction in the expression of three different eIF4E-regulated and cap-dependent transcripts necessary for cell proliferation (75% reduction in cyclin D1), survival (46% reduction in survivin), and DNA repair and integrity (30% reduction in NBS1). Protein levels of two housekeeping genes not regulated by eIF4E, GAPDH and β-tubulin, were not affected by RPL24 depletion (FIG. 2a).
as §2
FIG. 2: RPL24 knockdown reduces breast cancer cell viability while inhibiting cap (eIF4E)-dependent expression of proliferation, survival and genome stability proteins. SKBR3 cells were infected with lentiviruses expressing a GFP control or RPL24-targeting shRNA. After one week of puromycin selection, cells were plated in 96-well plates for viability assays and lysates were taken in parallel for western blots. (a) Western blots were performed on lysates from an equal number of cells using antibodies toward the indicated proteins. (b) Viability assay readings were taken three hours after plating (day 0) and four days after plating (day 4). The day 4 results were normalized for plating efficiency using the day 0 values. Error bars represent three replicate samples.
FIG. 5: Like RPL24 knockdown, histone deacetylase inhibition reduces 80S assembly while increasing 60S retention of eIF6 and reduces expression of cap (eIF4)-dependently translated proteins (a,b) SKBR3 cells were treated with TSA (1 μM, 2 h). […]

[3] = test system: HER2 mRNA; test: Northern blot of HER2 transcript levels; conditions: SKBR3 cells, TSA 1 μM, 6 h
Description: as §1
Cells are harvested and RNA is extracted using Trizol (Life Technologies) per manufacturer's protocol. Northern blots are performed as previously described. Briefly, RNA is then electrophoresed into 1% agarose-formaldehyde gels and transferred onto PVDF membranes. Membranes are then hybridized with ^32P-labelled cDNA probes for HER2 or GAPDH, washed, and visualized by autoradiography.
SKBR3 cells were treated with TSA (1 μM, 6 h) and/or cycloheximide (CX, 50 μg/ml, 6 h) or with the respective vehicle controls. […]

CC(/C=C/C(=O)NO)=C\[C@@H](C)C(=O)c1ccc(N(C)C)cc1 [TSA, trichostatin-A]
acetyl-lysine protein bands in polysomes, including band co-migrating with RPL24 ([1]; 1 μM TSA, 2 h, western blot): several TSA-induced bands | total RPL24 levels ([1]; 1 μM TSA, 2 h, western blot): not altered | ribosomal protein acetylation, including the band that co-migrates with RPL24 ([1]; western blot of ribopellets (FIG. 4c,d)): induce | cyclin D1 levels ([2]; 8 h treatment): reduced | expression of NBS1 relative to GAPDH and β-tubulin ([2]; 24 h treatment): reduced | expression of cyclin D1 relative to GAPDH and β-tubulin ([2]; 24 h treatment): reduced | expression of survivin relative to GAPDH and β-tubulin ([2]; 24 h treatment): reduced | HER2 mRNA decay [3]: TSA-induced HER2 mRNA decay
